Results reported in ChEMBL document CHEMBL1132204, “Design and synthesis of phosphinamide-based hydroxamic acids as inhibitors of matrix metalloproteinases” (J Med Chem, 1999).

How the values were obtained:
Collagenase 3 = Collagenase 3 (Rattus norvegicus, UniProt P23097)
Description: Inhibition of rat matrix metalloprotease 13

Interstitial collagenase = target: T1, Interstitial collagenase (Homo sapiens, UniProt P03956); experiment: Inhibition of human matrix metalloprotease 1
T1 sequence (P03956 whole entry): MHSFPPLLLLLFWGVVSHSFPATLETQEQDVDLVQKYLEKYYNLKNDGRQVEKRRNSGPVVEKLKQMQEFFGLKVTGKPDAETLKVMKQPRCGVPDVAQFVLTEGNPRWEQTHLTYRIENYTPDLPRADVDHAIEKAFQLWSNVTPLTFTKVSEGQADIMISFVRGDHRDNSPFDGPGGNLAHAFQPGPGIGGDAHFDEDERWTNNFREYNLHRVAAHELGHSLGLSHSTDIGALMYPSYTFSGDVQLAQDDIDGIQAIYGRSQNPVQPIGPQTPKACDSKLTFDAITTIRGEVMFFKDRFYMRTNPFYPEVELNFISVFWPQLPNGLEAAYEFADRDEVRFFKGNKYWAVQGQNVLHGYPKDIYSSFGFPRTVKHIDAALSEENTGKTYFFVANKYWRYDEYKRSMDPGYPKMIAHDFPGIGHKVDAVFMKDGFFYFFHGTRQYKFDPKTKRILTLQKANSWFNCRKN

Neutrophil collagenase = Neutrophil collagenase (Homo sapiens, UniProt P22894); experiment: Inhibition of human Matrix metalloprotease-8
Matrilysin = target: T2, Matrilysin (Homo sapiens, UniProt P09237); experiment: Inhibition of human matrix metalloprotease 7
T2 sequence (P09237 whole entry): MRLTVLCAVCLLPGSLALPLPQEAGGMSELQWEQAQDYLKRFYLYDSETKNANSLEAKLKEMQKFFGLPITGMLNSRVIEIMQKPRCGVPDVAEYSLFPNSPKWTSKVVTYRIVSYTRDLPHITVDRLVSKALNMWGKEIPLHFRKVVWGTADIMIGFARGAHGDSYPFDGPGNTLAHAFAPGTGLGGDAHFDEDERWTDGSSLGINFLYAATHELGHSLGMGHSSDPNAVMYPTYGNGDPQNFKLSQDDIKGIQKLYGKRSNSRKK

[1] = target: Matrix metalloproteinase-9 (Homo sapiens, UniProt P14780); experiment: Inhibition of human matrix metalloprotease 9
Stromelysin-1 = Stromelysin-1 (Homo sapiens, UniProt P08254); experiment: Inhibition of human matrix metalloprotease-3
[2] = target: 72 kDa type IV collagenase (Homo sapiens, UniProt P08253); experiment: Inhibition of human matrix metalloprotease 2
Sequence of 72 kDa type IV collagenase (P08253 whole entry): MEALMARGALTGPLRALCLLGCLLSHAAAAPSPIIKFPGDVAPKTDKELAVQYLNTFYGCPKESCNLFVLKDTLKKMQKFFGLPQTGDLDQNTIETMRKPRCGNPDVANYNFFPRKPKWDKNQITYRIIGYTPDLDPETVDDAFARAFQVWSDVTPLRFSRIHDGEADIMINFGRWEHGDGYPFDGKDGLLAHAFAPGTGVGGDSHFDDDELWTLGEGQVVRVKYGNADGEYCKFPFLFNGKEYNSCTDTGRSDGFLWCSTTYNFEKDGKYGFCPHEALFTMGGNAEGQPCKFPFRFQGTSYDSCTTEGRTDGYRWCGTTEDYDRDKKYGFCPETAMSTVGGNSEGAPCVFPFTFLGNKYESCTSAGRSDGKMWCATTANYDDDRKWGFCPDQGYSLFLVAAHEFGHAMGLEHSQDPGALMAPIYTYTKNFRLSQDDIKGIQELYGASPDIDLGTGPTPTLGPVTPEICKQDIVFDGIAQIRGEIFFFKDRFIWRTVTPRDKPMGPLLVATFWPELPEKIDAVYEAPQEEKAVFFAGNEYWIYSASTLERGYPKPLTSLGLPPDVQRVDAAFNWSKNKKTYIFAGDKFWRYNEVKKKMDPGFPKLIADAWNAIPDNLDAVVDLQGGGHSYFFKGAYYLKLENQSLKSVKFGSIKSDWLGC

Sequence of Stromelysin-1 (P08254 whole entry): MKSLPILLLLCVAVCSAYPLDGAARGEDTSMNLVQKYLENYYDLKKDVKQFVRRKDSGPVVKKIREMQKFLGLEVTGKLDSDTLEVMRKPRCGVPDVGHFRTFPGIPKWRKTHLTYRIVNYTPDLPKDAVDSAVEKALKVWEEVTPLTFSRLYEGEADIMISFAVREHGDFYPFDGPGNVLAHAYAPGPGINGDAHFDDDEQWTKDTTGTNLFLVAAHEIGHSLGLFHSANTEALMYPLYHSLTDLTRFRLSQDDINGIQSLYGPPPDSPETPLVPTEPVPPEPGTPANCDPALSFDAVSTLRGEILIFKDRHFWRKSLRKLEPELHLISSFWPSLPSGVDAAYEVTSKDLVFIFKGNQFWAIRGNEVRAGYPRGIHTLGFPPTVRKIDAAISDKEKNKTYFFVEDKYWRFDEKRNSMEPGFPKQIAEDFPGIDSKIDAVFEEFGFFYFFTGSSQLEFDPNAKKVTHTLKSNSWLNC
Sequence of Matrix metalloproteinase-9 (P14780 whole entry): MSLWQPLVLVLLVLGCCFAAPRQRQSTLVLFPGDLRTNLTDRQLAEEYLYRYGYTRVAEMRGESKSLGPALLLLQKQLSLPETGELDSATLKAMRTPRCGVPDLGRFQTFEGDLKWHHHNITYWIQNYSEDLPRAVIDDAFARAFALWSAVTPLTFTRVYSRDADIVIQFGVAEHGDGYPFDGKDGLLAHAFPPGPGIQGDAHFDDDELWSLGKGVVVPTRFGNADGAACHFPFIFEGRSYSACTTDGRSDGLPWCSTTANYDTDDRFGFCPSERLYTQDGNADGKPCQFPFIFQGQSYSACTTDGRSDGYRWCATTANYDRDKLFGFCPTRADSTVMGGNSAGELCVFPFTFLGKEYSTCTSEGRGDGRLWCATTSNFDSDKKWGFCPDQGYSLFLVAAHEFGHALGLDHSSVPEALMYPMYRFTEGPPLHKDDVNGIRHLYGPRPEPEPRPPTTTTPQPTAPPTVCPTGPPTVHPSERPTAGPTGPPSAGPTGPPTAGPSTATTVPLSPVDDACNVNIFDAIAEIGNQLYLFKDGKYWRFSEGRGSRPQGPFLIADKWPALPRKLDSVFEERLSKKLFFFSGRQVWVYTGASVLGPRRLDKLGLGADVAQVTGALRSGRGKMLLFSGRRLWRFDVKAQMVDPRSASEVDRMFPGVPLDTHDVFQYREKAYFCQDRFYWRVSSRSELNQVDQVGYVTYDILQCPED
Sequence of Neutrophil collagenase (P22894 whole entry): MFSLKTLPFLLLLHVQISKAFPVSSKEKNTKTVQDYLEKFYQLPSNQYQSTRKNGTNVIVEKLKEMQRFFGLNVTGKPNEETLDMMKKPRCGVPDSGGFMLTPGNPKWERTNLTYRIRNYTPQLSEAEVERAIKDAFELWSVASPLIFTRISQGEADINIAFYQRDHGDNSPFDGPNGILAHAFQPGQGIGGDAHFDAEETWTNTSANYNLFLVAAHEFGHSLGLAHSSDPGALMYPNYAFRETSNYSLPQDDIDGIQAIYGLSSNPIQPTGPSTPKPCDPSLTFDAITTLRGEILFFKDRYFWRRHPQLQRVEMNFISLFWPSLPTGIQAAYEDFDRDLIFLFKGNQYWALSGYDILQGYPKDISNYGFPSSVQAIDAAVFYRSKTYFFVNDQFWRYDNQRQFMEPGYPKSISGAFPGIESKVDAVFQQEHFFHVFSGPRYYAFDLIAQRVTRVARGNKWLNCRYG

`CC(C)C[C@H](C(=O)NO)N(Cc1ccccc1)[P@](C)(=O)c1ccccc1` showed an IC50 (Collagenase 3) of 7.4 nM, an IC50 (Interstitial collagenase) of 20.5 nM and an IC50 (Neutrophil collagenase) of 5.3 nM. It also gave an IC50 (Matrilysin) of 886 nM, an IC50 [1] of 20.6 nM and an IC50 (Stromelysin-1) of 24.4 nM. The IC50 [2] was 13.3 nM.

In the case of `C[C@H](C(=O)NO)N(Cc1ccccc1)P(=O)(c1ccccc1)c1ccccc1`, the IC50 (Interstitial collagenase) is reported as 6790 nM and the IC50 (Stromelysin-1) is reported as 10300 nM.

For `C[P@@](=O)(c1ccccc1)N(CCc1ccccc1)CC(=O)NO`, the IC50 (Interstitial collagenase) was 525 nM and the IC50 (Stromelysin-1) was 700 nM.

In the case of `CC(C)C[C@H](C(=O)NO)N(Cc1ccccc1)P(C)(C)=O`, the IC50 (Interstitial collagenase) is reported as 518 nM and the IC50 (Stromelysin-1) is reported as 1040 nM.

Work on `O=C(CN(CCc1ccccc1)P(=O)(c1ccccc1)c1ccccc1)NO` yielded an IC50 (Interstitial collagenase) of 854 nM and an IC50 (Stromelysin-1) of 1750 nM.

`CCP(=O)(c1ccccc1)N(Cc1ccccc1)[C@H](C)C(=O)NO` (stereo partly specified) was tested, and the IC50 (Interstitial collagenase) was 608 nM and the IC50 (Stromelysin-1) was 700 nM.

`CC(C)C[C@@H](N[P@@](C)(=O)c1ccccc1)C(=O)NO` showed an IC50 (Interstitial collagenase) of over 100000 nM and an IC50 (Stromelysin-1) of 130000 nM.

`CC[P@@](=O)(c1ccccc1)N(Cc1ccccc1)[C@H](C)C(=O)NO` was tested, and the IC50 (Interstitial collagenase) was 33300 nM and the IC50 (Stromelysin-1) was 49300 nM.

With `CC(C)C[C@H](C(=O)NO)N(Cc1ccccc1)[P@@](C)(=O)c1ccccc1` the IC50 (Interstitial collagenase) was 7120 nM and the IC50 (Stromelysin-1) was 9170 nM.

`CCCCCCN([C@H](C)C(=O)NO)[P@](C)(=O)c1ccccc1` showed an IC50 (Interstitial collagenase) of 1290 nM and an IC50 (Stromelysin-1) of 1600 nM.

`CC(C)C[C@@H](N[P@](C)(=O)c1ccccc1)C(=O)NO` was tested, and the IC50 (Interstitial collagenase) was 2510 nM and the IC50 (Stromelysin-1) was 2550 nM.

Compound `C[C@H](C(=O)NO)N(Cc1ccccc1)[P@](C)(=O)c1ccccc1` has an IC50 (Interstitial collagenase) of 120 nM, an IC50 (Matrilysin) of 1860 nM and an IC50 [1] of 32.5 nM. The IC50 (Stromelysin-1) was 67.9 nM.
